From PubChem BioAssay AID1963872 (Molecular Pharmacology Branch, DTP, NCI, 2024)

System: KRAS patient-derived spheroids with HUVEC/MSC, viability
Experiment: Anticancer human tumor 519858-162-T-J1-PDC patient-derived colon adenocarcinoma cell line growth inhibition [KRAS2]
Conditions: for IC50: curve of first compound; for viability, T/C: stronger effect = lower value
Text: Multicellular complex tumor spheroid response to RAS pathway inhibitors in combination with a targeted agents in patient-derived cell lines with oncogenic KRAS variants from multiple cancer types
A high-throughput screen of multi-cell type tumor spheroids was designed to identify active combinations of targeted small molecules and KRAS pathway inhibitors. Complex spheroids include a stromal component modeled by human endothelial cells (HUVEC) and fibroblasts modeled by human mesenchymal stem cells (MSCs). The concentration ranges selected for each drug and investigational agent were based upon clinically achievable concentrations if the clinical Cmax of the agent was known.
Compounds. The drugs and investigational agents: BI-3406 (NSC825286), BAY-293 (NSC824723), batoprotafib (TNO155; NSC825523), sotorasib (AMG 510; NSC818433), MRTX1257 (NSC819558), elimusertib (BAY 1895344; NSC800525), molibresib (GSK525762; NSC774829), temuterkib (LY3214996; NSC803410), venetoclax (NSC766270), alisertib (NSC759677), olaparib (NSC753686), talazoparib (NSC767125), erdafitinib (NSC781556), ipatasertib (NSC767898), cabozantinib (NSC761068), nintedanib (NSC756659), abemaciclib (NSC768073), docetaxel (NSC628503), trametinib (NSC758246), and sapanisertib (NSC764658) were obtained from the National Cancer Institute (NCI) Developmental Therapeutics Program Chemical Repository. The FDA-approved anticancer drug set is available from the Developmental Therapeutics Program. […] The stock solutions were prepared in dimethyl sulfoxide (DMSO, Sigma-Aldrich, St. Louis, MO, cat. D2650) at 800-fold the tested concentration and stored at -70 degrees C prior to their use. All drugs and investigational agents were tested over a range starting from a high concentration at or near the clinical Cmax and decreasing in half-log increments. If the clinical Cmax for an agent had not been determined, the highest concentration tested was 10 microM.
Cell Culture. All cells were maintained in an incubator at 37 degrees C and 5% CO2 with 95% humidity. The PDC lines were cultured according to standard operating procedures established by the NCI PDMR (https://pdmr.cancer.gov/sops/default.htm). Briefly, all PDCs were thawed and cultured in Matrigel-coated flasks prepared with a working solution of 1X Ham's F-12 nutrient mix, without supplementation (Invitrogen, Waltham, MA, cat. 11765054), 100 U/mL penicillin-streptomycin (Invitrogen, cat. 15140122), and 2.5% Matrigel (Corning Inc., Corning, NY, cat. 354248) for the first three passages. All PDCs were cultured in complete DMEM/F-12 media containing advanced DMEM/F-12 (Invitrogen, cat. 12634028), 4.9% defined fetal bovine serum, heat inactivated (HyClone Laboratories Inc., Logan, UT, cat. SH30070.03HI), 389 ng/mL hydrocortisone (Sigma-Aldrich, cat. H4001), 9.7 ng/mL human EGF recombinant protein (Invitrogen, cat. PHG0313), 23.4 microg/mL adenine (Sigma-Aldrich, cat. A2786), 97.3 U/mL penicillin-streptomycin (Invitrogen, cat. 15140122), 1.9 mM L-glutamine (Invitrogen, cat. 25030081), and 9.7 microM Y-27632 dihydrochloride (Tocris Bioscience, Bristol, United Kingdom, cat. 1254). The PDCs were cultured in complete DMEM/F12 media without 9.7 microM Y-27632 dihydrochloride for at least two passages prior to the screen. The established cell line HOP-62 was cultured in RPMI 1640 medium, HEPES (Invitrogen, cat. 22400105) with 10% defined fetal bovine serum (HyClone Laboratories Inc., cat. SH30070.03) and 2 mM L-glutamine (Invitrogen, cat. 25030081). The pooled donor HUVEC were cultured in endothelial cell growth medium 2 (PromoCell, Heidelberg, Germany, cat. C-22011) and the hMSC were cultured in mesenchymal stem cell growth medium 2 (PromoCell, cat. C-28009). For all experiments, HUVEC and hMSC were used at passages </=5, while the malignant cell lines were used at passages </=15. […]

[1] = second compound 0.1 µM, first compound 0.01 µM
[2] = second compound 0.1 µM, first compound 0.0316 µM
[3] = second compound 0.1 µM, first compound 0.1 µM
[4] = second compound 0.316 µM, first compound 0.01 µM
[5] = second compound 0.316 µM, first compound 0.0316 µM
[6] = second compound 0.316 µM, first compound 0.1 µM
[7] = second compound 1 µM, first compound 0.01 µM
[8] = second compound 1 µM, first compound 0.0316 µM
[9] = second compound 1 µM, first compound 0.1 µM
[10] = second compound 3.16 µM, first compound 0.01 µM
[11] = second compound 3.16 µM, first compound 0.0316 µM
[12] = second compound 3.16 µM, first compound 0.1 µM
[13] = second compound 10 µM, first compound 0.01 µM
[14] = second compound 10 µM, first compound 0.0316 µM
[15] = second compound 10 µM, first compound 0.1 µM
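Also: compound exposure lasted seven days before readout.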
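For viability, T/C in this document: 100% = DMSO vehicle control viability.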

Row | SMILES | IC50 (second compound 0.1 µM) [nM] | IC50 (second compound 0.316 µM) [nM] | IC50 (second compound 1 µM) [nM] | IC50 (second compound 3.16 µM) [nM] | IC50 (second compound 10 µM) [nM] | viability, T/C [1] [%] | viability, T/C [2] [%] | viability, T/C [3] [%] | viability, T/C [4] [%] | viability, T/C [5] [%] | viability, T/C [6] [%] | viability, T/C [7] [%] | viability, T/C [8] [%] | viability, T/C [9] [%] | viability, T/C [10] [%] | viability, T/C [11] [%] | viability, T/C [12] [%] | viability, T/C [13] [%] | viability, T/C [14] [%] | viability, T/C [15] [%] | other results
1 | CC(=O)OC12COC1CC(O)C1(C)C(=O)C(O)C3=C(C)C(OC(=O)C(O)C(NC(=O)OC(C)(C)C)c4ccccc4)CC(O)(C(OC(=O)c4ccccc4)C21)C3(C)C (stereo not given) + C=CC(=O)N1CCN(c2nc(=O)n(-c3c(C)ccnc3C(C)C)c3nc(-c4c(O)cccc4F)c(F)cc23)C(C)C1 | > 3160 | > 3160 | > 3160 | > 3160 | > 3160 | 121 | 80.8 | 98.2 | 84.7 | 68.9 | 84.3 | 62.8 | 80.2 | 90.5 | 54.7 | 74.6 | 70 | 62.1 | 79 | 84.5 | viability, T/C (second compound 0.1 µM, first compound 0.316 µM): 89.6%; viability, T/C (second compound 0.1 µM, first compound 1 µM): 72.3%; viability, T/C (second compound 0.1 µM, first compound 3.16 µM): 62.1%; viability, T/C (second compound 0.316 µM, first compound 0.316 µM): 93.1%; viability, T/C (second compound 0.316 µM, first compound 1 µM): 77.5%; viability, T/C (second compound 0.316 µM, first compound 3.16 µM): 64.7%; viability, T/C (second compound 1 µM, first compound 0.316 µM): 83.5%; viability, T/C (second compound 1 µM, first compound 1 µM): 74.1%; viability, T/C (second compound 1 µM, first compound 3.16 µM): 67.8%; viability, T/C (second compound 3.16 µM, first compound 0.316 µM): 103%; viability, T/C (second compound 3.16 µM, first compound 1 µM): 69.7%; viability, T/C (second compound 3.16 µM, first compound 3.16 µM): 75.8%; viability, T/C (second compound 10 µM, first compound 0.316 µM): 68.5%; viability, T/C (second compound 10 µM, first compound 1 µM): 64.8%; viability, T/C (second compound 10 µM, first compound 3.16 µM): 69.3%
2 | CN(C)C/C=C/C(=O)Nc1cc2c(Nc3ccc(F)c(Cl)c3)ncnc2cc1O[C@H]1CCOC1 + C=CC(=O)N1CCN(c2nc(=O)n(-c3c(C)ccnc3C(C)C)c3nc(-c4c(O)cccc4F)c(F)cc23)C(C)C1 | > 100 | > 100 | > 100 | > 100 | > 100 | 80 | 87.4 | 84.8 | 86 | 93.9 | 60.2 | 83.4 | 61.9 | 80.2 | 61.1 | 61.5 | 81.7 | 67.5 | 80.9 | 73.6 | viability, T/C (second compound 0.1 µM, first compound 0.000316 µM): 86.2%; viability, T/C (second compound 0.1 µM, first compound 0.001 µM): 95%; viability, T/C (second compound 0.1 µM, first compound 0.00316 µM): 86.8%; viability, T/C (second compound 0.316 µM, first compound 0.000316 µM): 85.6%; viability, T/C (second compound 0.316 µM, first compound 0.001 µM): 103%; viability, T/C (second compound 0.316 µM, first compound 0.00316 µM): 75.2%; viability, T/C (second compound 1 µM, first compound 0.000316 µM): 110%; viability, T/C (second compound 1 µM, first compound 0.001 µM): 77.8%; viability, T/C (second compound 1 µM, first compound 0.00316 µM): 71%; viability, T/C (second compound 3.16 µM, first compound 0.000316 µM): 61.4%; viability, T/C (second compound 3.16 µM, first compound 0.001 µM): 69.7%; viability, T/C (second compound 3.16 µM, first compound 0.00316 µM): 90.5%; viability, T/C (second compound 10 µM, first compound 0.000316 µM): 74.8%; viability, T/C (second compound 10 µM, first compound 0.001 µM): 92.6%; viability, T/C (second compound 10 µM, first compound 0.00316 µM): 79.1%
